According to patent publication US6653081B2, “Methods for monitoring antiretroviral therapy and guiding therapeutic decision in the treatment of HIV/AIDS” (ViroLogic, Inc., priority 2000, dated 2003):
Where “and” joins values, the source holds several entries; their conditions need not be identical. Equal entries are not always repeated.

Key:
K103N/M230L-RTV = assay: Phenotypic susceptibility assay, K103N/M230L-RTV; format: cell-based, HIV-1; settings: site-directed K103N + M230L
Source text: (§1) The resistance test vectors containing a functional luciferase gene cassette were constructed and host cells were transfected with the resistance test vector DNA. The resistant test vectors contained patient-derived reverse transcriptase and protease sequences that were either susceptible or resistant to the antiretroviral agents, such as nucleoside reverse transcriptase inhibitors, (NRTIs) non-nucleoside reverse transcriptase inhibitors […] protease inhibitors. The resistance test vector viral particles produced by transfecting the resistance test vector DNA into host cells, either in the presence or absence of PRIs, were used to infect target host cells grown either in the absence of NRTIs or NNRTIs, or in the presence of increasing concentrations of the drug. The amount of luciferase activity produced in infected target host cells in the presence of varying concentrations of drug was compared to the amount of luciferase produced in infected target host cells in the absence of drug. “Drug resistance” was measured as the amount of drug required to inhibit by 50% the luciferase activity detected in the absence of drug (inhibitory concentration 50%, IC50). The IC50 values were determined by plotting percent drug inhibition vs. log10 drug concentration. Stimulation of viral replication was measured as the percent increase in luciferase activity detected when infection occurs in the presence of drug as compared to in the absence of drug.
(§2) Host cells were seeded in 10-cm-diameter dishes and were transfected several days after plating with resistance test vector plasmid DNA and the envelope expression vector. Transfections were performed using a calcium-phosphate precipitation procedure. The cell culture media containing the DNA precipitate was replaced with fresh medium, from one to 24 hours, after transfection. Cell culture media containing resistance test vector viral particles was harvested one to four days after transfection and was passed through a […] filter before being used to infect target host cells, or being stored at −80° C. HIV capsid protein (p24) levels in the harvested cell culture media were determined by an EIA method as described by the manufacturer (SAIC; Frederick, Md.). Before infection, target cells (293 and 293/T) were plated in cell culture media. Control infections were performed using cell culture media from mock transfections (no DNA) or transfections containing the resistance test vector plasmid DNA without the envelope expression plasmid. One to three or more days after infection, the media was removed and cell lysis buffer (Promega) was added to each well. Cell lysates were assayed for luciferase activity (FIG. 3). The inhibitory effect of the drug was determined using the following equation:
(§3) % luciferase inhibition=1−(RLUluc[drug]÷RLUluc)×100
(§4) where RLUluc [drug] is the Relative Light Unit of luciferase activity in infected cells in the presence of drug, and RLUluc is the Relative Light Unit of luciferase activity in infected cells in the absence of drug. IC50values were obtained from the sigmoidal curves that were generated from the data by plotting the percent inhibition of luciferase activity vs. the log10 drug concentration. The percent luciferase stimulation is the negative of the % inhibition calculated using the formula above.
The M230L mutation was tested alone and is described in Example 3 above. A resistance test vector containing the M230L mutation and the K103N mutation (K103N/M230L-RTV) was constructed and tested using the phenotypic assay described earlier, and the results were compared to those determined using a genetically defined resistance test vector that was wild type at positions 103 and 230. We determined the pattern of phenotypic susceptibility to the NNRTIs, delavirdine, nevirapine and efavirenz, in the K103N/M230L-RTV. […]

RTV-010835 = assay: Phenotypic susceptibility assay, RTV-010835; format: cell-based, HIV; settings: patient CCTG-2165, week 15; K103N and M230L present
Source text: The resistance test vectors containing a functional luciferase gene cassette were constructed and host cells were transfected with the resistance test vector DNA. The resistant test vectors contained patient-derived reverse transcriptase and protease sequences that were either susceptible or resistant to the antiretroviral agents, such as nucleoside reverse transcriptase inhibitors, (NRTIs) non-nucleoside reverse transcriptase inhibitors […] protease inhibitors. The resistance test vector viral particles produced by transfecting the resistance test vector DNA into host cells, either in the presence or absence of PRIs, were used to infect target host cells grown either in the absence of NRTIs or NNRTIs, or in the presence of increasing concentrations of the drug. The amount of luciferase activity produced in infected target host cells in the presence of varying concentrations of drug was compared to the amount of luciferase produced in infected target host cells in the absence of drug. […] The IC50 values were determined by plotting percent drug inhibition vs. log10 drug concentration. Stimulation of viral replication was measured as the percent increase in luciferase activity detected when infection occurs in the presence of drug as compared to in the absence of drug.
Host cells were seeded in 10-cm-diameter dishes and were transfected several days after plating with resistance test vector plasmid DNA and the envelope expression vector. […] HIV capsid protein (p24) levels in the harvested cell culture media were determined by an EIA method as described by the manufacturer (SAIC; Frederick, Md.). […] The inhibitory effect of the drug was determined using the following equation: […]
where RLUluc [drug] is the Relative Light Unit of luciferase activity in infected cells in the presence of drug, and RLUluc is the Relative Light Unit of luciferase activity in infected cells in the absence of drug. […] The percent luciferase stimulation is the negative of the % inhibition calculated using the formula above. […]

RTV-010829/245V = assay: Phenotypic susceptibility assay, RTV-010829/245V; format: cell-based, HIV; settings: RTV-010829 with V245E reverted
Source text: as §1, §2, §3, §4
A resistance test vector containing all of the mutations present in RTV-010829 except for the V245E mutation (RTV-010829/245V) was constructed and tested using the phenotypic assay described earlier. The results were compared to those determined using the parent RTV-010829. We determined the pattern of phenotypic susceptibility to the NNRTIs, delavirdine, nevirapine and efavirenz, in the reverted vector RTV-010829/245V. […] A resistance test vector containing all of the mutations present in RTV-010829 except for the I270M (RTV-010829/270I) was constructed and tested using the phenotypic assay described earlier. […]

RTV-013522/270I = assay: Phenotypic susceptibility assay, RTV-013522/270I; format: cell-based, HIV; settings: RTV-013522 with I270S reverted
Source text: as §1, §2, §3, §4
A resistance test vector containing all of the mutations present in […] except for the I270S (RTV-013522/270I) was constructed and tested using the phenotypic assay described earlier. The results were compared to those determined using the parent RTV-013522. We determined the pattern of phenotypic susceptibility to the NNRTIs, delavirdine, nevirapine and efavirenz, in the reverted vector RTV-013522/270I. […] In this patient sample the correlation of drug-dependent stimulation of viral replication with the mutation at I270S is very striking. […]

Y181C/M230L-RTV = assay: Phenotypic susceptibility assay, Y181C/M230L-RTV; format: cell-based, HIV-1; settings: site-directed Y181C + M230L
RTV-007130 = assay: Phenotypic susceptibility assay, RTV-007130; format: cell-based, HIV; settings: patient 007130; for decrease in susceptibility: 245 with multiple other mutations
Source text: as §1, §2, §3, §4
A resistance test vector was constructed as described in Example 1 from a virus sample obtained from patient 007130. The prior and current treatment regimens are unknown. Isolation of viral RNA and RT/PCR was used to generate a patient derived segment (PDS) that comprised viral sequences coding for all of PR and aa 1-313 of RT. The PDS were inserted into an indicator gene viral vector to generate a resistance test vector designated RTV-007130. RTV-007130 was then tested in a phenotypic assay to determine accurately and quantitatively the level of susceptibility to a panel of anti-retroviral drugs. […]

Row | SMILES | drug-dependent stimulation of viral replication (K103N/M230L-RTV) [%] | reduction in susceptibility compared to wild type control RTV (K103N/M230L-RTV) [fold] | decrease in susceptibility (RTV-010835) [fold] | drug-dependent stimulation of viral replication (RTV-010829/245V) [%] | reductions in susceptibility compared to wild type control RTV (RTV-010829/245V) [fold] | drug-dependent stimulation of viral replication (RTV-013522/270I) | reductions in susceptibility compared to wild type control RTV (RTV-013522/270I) [fold] | drug-dependent stimulation of viral replication (Y181C/M230L-RTV) | reduction in susceptibility compared to wild type control RTV (Y181C/M230L-RTV) | drug-dependent stimulation of viral replication (RTV-007130) [%] | decrease in susceptibility (RTV-007130) [fold]
1 | CC(C)Nc1cccnc1N1CCN(C(=O)c2cc3cc(NS(C)(=O)=O)ccc3[nH]2)CC1 [delavirdine] | ~100 | > 250 | > 250 | ~60 | 182 | no longer exhibiting negative inhibition | 40 | no drug-dependent stimulation | > 250 fold | ~30 | > 250
2 | O=C1Nc2ccc(Cl)cc2[C@@](C#CC2CC2)(C(F)(F)F)O1 [efavirenz] | ~40 | > 470 | 270 | ~60 | 189 | no longer exhibiting negative inhibition | 8 | no drug-dependent stimulation | 25 fold | ~40 | > 450
3 | Cc1ccnc2c1NC(=O)c1cccnc1N2C1CC1 [nevirapine] | ~70 | > 600 | > 600 | ~80 | 505 | no longer exhibiting negative inhibition | 14 | no drug-dependent stimulation | > 600 fold and > 800 fold | ~50 | > 600
